ChEMBL document CHEMBL3044741, “Synthesis of novel biologically active methylene derivatives of sydnones” (Med Chem Res, 2013)
Values after ≈ are worked out from the molar mass of the structure shown.

How the values were obtained:
HT-29 = test: Cytotoxicity against human HT-29 assessed as cell growth at high concentration; type: functional
[1] = Cytotoxicity against human MT4 cells by MTT assay; type: cell-based
OVCAR-5 = test: Cytotoxicity against human OVCAR5 assessed as cell growth at high concentration; type: functional
Candida albicans = test: Antifungal activity against Candida albicans MTCC 227; type: functional
NCI-H226 = test: Cytotoxicity against human NCI-H226 assessed as cell growth at high concentration; type: functional
HL-60(TB) = test: Cytotoxicity against human HL-60(TB) assessed as cell growth at high concentration; type: functional
OVCAR-8 = test: Cytotoxicity against human OVCAR8 assessed as cell growth at high concentration; type: functional
Human alphaherpesvirus 3 = test: Antiviral activity against Varicella-zoster virus Oka expressing thymidine kinase infected in HEL cells assessed as reduction in plaque formation; type: functional, organism-based; conditions: Human alphaherpesvirus 3, strain Oka vaccine
Cytomegalovirus = test: Antiviral activity against Cytomegalovirus Davis in HEL cells assessed as reduction in plaque formation; type: functional, organism-based; conditions: Human betaherpesvirus 5, Davis
NCI-H23 = test: Cytotoxicity against human NCI-H23 assessed as cell growth at high concentration; type: functional
COLO 205 = test: Cytotoxicity against human COLO205 assessed as cell growth at high concentration; type: functional
Pseudomonas aeruginosa = test: Antibacterial activity against Pseudomonas aeruginosa MTCC 424 after 24 hrs by broth dilution method; type: functional; conditions: MTCC 424, 24 h
SN12C = test: Cytotoxicity against human SN12C assessed as cell growth at high concentration; type: functional
HCT-116 = test: Cytotoxicity against human HCT116 assessed as cell growth at high concentration; type: functional
LOX IMVI = test: Cytotoxicity against human LOXIMVI assessed as cell growth at high concentration; type: functional
OVCAR-4 = test: Cytotoxicity against human OVCAR4 assessed as cell growth at high concentration; type: functional
MDA-MB-468 = test: Cytotoxicity against human MDA-MB-468 assessed as cell growth at high concentration; type: functional
T47D = test: Cytotoxicity against human T47D assessed as cell growth at high concentration; type: functional
[2] = Selectivity index, ratio of CC50 for human MT4 cells to IC50 for HIV1 3B; type: functional
[3] = Cytotoxicity against human HEL cells assessed as alteration in cell morphology; type: cell-based
786-0 = test: Cytotoxicity against human 786-0 assessed as cell growth at high concentration; type: functional
Escherichia coli = test: Antibacterial activity against Escherichia coli MTCC 443 at 250 ug/ml after 24 hrs by Kirby-Bauer method; type: functional; conditions: MTCC 443, 24 h, read-out: IZ
[4] = Selectivity index, ratio of CC50 for human MT4 cells to IC50 for HIV2 ROD; type: functional
MDA-MB-231 = test: Cytotoxicity against human MDA-MB-231 assessed as cell growth at high concentration; type: functional
DU-145 = test: Cytotoxicity against human DU145 assessed as cell growth at high concentration; type: functional

Structure (SMILES)	Activity (HT-29) [%]	CC50 [1] [µg/mL]	Activity (OVCAR-5) [%]	MIC (Candida albicans) [µg/mL]	Activity (NCI-H226) [%]	Activity (OVCAR-8) [%]	EC50 (Human alphaherpesvirus 3) [µg/mL]	EC50 (Cytomegalovirus) [µg/mL]	Activity (NCI-H23) [%]	Activity (COLO 205) [%]	MIC (Pseudomonas aeruginosa) [µg/mL]	Activity (SN12C) [%]	Activity (HCT-116) [%]	Activity (LOX IMVI) [%]	Activity (OVCAR-4) [%]	Activity (MDA-MB-468) [%]	Activity (T47D) [%]	Ratio CC50/IC50 [2]	MCC [3] [µg/mL]	Activity (786-0) [%]	also measured
Cc1ccc(-[n+]2noc([O-])c2CN2CCNCC2)cc1	105.21	32.6 (≈ 119 µM)	96.81	200 (≈ 729 µM)	84.85	104.3	> 20	> 20	101.63	99.98	50 (≈ 182 µM)	91.43	108.38	92.56	114.7	101.9	106.04	<1	100	105.96	Activity (HL-60(TB)): 118.68%; zone of inhibition at 250 µg/mL (Escherichia coli): 21 mm; Ratio CC50/IC50 [4]: <1; Activity (MDA-MB-231): 86.16%; Activity (DU-145): 102.16%
Cc1ccc(-[n+]2noc([O-])c2CN2CCN(c3cccc(Cl)c3)CC2)cc1	90.87	27.4 (≈ 71.3 µM)	94.62	200 (≈ 520 µM)	79.22	94.91	> 20	> 20	95.83	89.45	150 (≈ 390 µM)	87.71	82.24	99.09	89.31	80.15	72.96	<1	100	101.4	zone of inhibition at 250 µg/mL (Escherichia coli): 22 mm; Ratio CC50/IC50 [4]: <1; Activity (MDA-MB-231): 75.33%; Activity (DU-145): 95.5%
